Measured values: ChEMBL document CHEMBL1138026, “Ketopyrrolidines and ketoazetidines as potent dipeptidyl peptidase IV (DPP IV) inhibitors” (Bioorg Med Chem Lett, 2004)

Assays:
[1] = Inhibitory concentration against dipeptidyl peptidase IV
[2] = Inhibition constant against dipeptidyl peptidase IV

Structure (SMILES) | IC50 [1] [nM] | Ki [2] [nM]
O=C(c1nc2ccccc2s1)C1CCN1C(=O)[C@@H]1C[C@@H]2CCCC[C@@H]2N1 (stereo not given in full) | 115 | –
CC(=O)[C@@H]1CCCN1C(=O)[C@@H]1C[C@@H]2CCCC[C@@H]2N1 | > 100000 | –
N#C[C@@H]1CCCN1C(=O)[C@@H](N)C1CCCCC1 | 8 | –
O=C(c1ccccc1)[C@@H]1CCCN1C(=O)[C@@H]1C[C@@H]2CCCC[C@@H]2N1 | > 100000 | –
N[C@@H](C(=O)N1CCC[C@@H]1C(=O)c1nccs1)C1CCCCC1 | 1000 | –
N[C@H](C(=O)N1CCSC1)C1CCCCC1 | 150 | –
C[C@H](N)C(=O)N1CCCC1P(=O)(Oc1ccccc1)Oc1ccccc1 (stereo not given in full) | 15 | –
O=C(c1nc2ccccc2s1)[C@@H]1CCN1C(=O)CNC1CCCCC1 | 190 | –
N[C@H](C(=O)N1CCCC1)C1CCCCC1 | 125 | –
N[C@@H](C(=O)N1CCCC[C@H]1C(=O)c1nccs1)C1CCCCC1 | > 100000 | –
CC(C)(C)NCC(=O)N1CCC1C(=O)c1nc2ccccc2s1 (stereo not given) | 100 | –
N[C@@H](C(=O)N1CCCC[C@@H]1C(=O)c1nccs1)C1CCCCC1 | > 100000 | –
O=C(c1cccnc1)[C@@H]1CCCN1C(=O)[C@@H]1C[C@@H]2CCCC[C@@H]2N1 | > 100000 | –
CCC(C)C(N)C(=O)N1CCC[C@H]1C(=O)c1nc2ccccc2s1 (stereo not given in full) | 100 | –
CC(C)[C@H](N)C(=O)N1CCC[C@H]1B(O)O [TALABOSTAT] | – | 2
N[C@@H](C(=O)N1CC[C@@H]1C(=O)c1nccs1)C1CCCCC1 | 40 | –
Cn1cncc1C(=O)[C@@H]1CCCN1C(=O)[C@@H]1C[C@@H]2CCCC[C@@H]2N1 | > 100000 | –
CC[C@H](C)[C@H](N)C(=O)N1CC[C@H]1C(=O)c1nc2ccccc2s1 | 200 | –
O=C(c1nc2ccccc2s1)[C@@H]1CCCN1C(=O)CNC1CCCCC1 | 300 | –
O=c1c(C2CCCCC2)nc(-c2nccs2)c2n1CCC2 | > 100000 | –
